# Source: ChEMBL document CHEMBL3399947, “Structure activity relationship of selective GABA uptake inhibitors” (Bioorg Med Chem, 2015)
# Experiments:
# Format in all cases: cell-based
# GABA transporter 2 = target: T1, GABA transporter 2 (Mus musculus, UniProt P31651); experiment: Inhibition of mouse mGAT2 expressed in HEK293 cells assessed as inhibition of [3H]GABA uptake after 3 mins incubation by TopCount microplate scintillation counting analysis; details: read-out: IC50
# T1 sequence (P31651 whole entry): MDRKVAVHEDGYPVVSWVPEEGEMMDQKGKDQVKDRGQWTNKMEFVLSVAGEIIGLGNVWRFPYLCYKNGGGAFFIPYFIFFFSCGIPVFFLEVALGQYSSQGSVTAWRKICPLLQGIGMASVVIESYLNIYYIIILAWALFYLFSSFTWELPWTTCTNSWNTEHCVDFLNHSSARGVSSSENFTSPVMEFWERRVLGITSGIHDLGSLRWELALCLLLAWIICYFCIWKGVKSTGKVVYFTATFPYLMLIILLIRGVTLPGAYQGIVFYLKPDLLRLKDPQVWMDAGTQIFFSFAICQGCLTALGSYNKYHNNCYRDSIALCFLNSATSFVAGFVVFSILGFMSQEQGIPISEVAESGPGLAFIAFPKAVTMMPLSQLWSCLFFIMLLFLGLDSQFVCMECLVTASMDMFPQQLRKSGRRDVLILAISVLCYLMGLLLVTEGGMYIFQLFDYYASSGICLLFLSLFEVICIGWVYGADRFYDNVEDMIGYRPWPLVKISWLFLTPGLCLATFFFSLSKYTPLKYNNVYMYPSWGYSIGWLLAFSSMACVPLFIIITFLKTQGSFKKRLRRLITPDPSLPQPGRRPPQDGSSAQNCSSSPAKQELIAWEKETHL
# GABA transporter 3 = target: T2, GABA transporter 3 (Mus musculus, UniProt P31649); experiment: Inhibition of mouse mGAT3 expressed in HEK293 cells assessed as inhibition of [3H]GABA uptake after 3 mins incubation by TopCount microplate scintillation counting analysis; details: read-out: IC50
# T2 sequence (P31649 whole entry): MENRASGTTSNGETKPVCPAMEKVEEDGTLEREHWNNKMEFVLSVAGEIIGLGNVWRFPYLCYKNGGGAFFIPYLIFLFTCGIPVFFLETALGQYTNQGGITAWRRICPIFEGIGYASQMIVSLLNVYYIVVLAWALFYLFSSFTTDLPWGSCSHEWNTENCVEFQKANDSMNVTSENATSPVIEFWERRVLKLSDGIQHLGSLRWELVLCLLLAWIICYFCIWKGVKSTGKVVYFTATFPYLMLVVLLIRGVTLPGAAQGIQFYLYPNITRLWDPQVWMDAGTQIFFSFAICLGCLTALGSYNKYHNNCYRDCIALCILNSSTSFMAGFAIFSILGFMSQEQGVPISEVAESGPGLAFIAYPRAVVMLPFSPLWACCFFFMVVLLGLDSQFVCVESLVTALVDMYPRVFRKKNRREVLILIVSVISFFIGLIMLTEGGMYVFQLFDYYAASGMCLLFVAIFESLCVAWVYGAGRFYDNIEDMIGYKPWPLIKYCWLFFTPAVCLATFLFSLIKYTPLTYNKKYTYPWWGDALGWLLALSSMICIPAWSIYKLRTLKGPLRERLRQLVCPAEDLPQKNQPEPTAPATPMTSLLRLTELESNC
# [1] = target: Sodium- and chloride-dependent GABA transporter 1 (Mus musculus, UniProt P31648); experiment: Inhibition of mouse mGAT1 expressed in HEK293 cells assessed as inhibition of [3H]GABA uptake after 3 mins incubation by TopCount microplate scintillation counting analysis
# GABA transporter 4 = target: T3, GABA transporter 4 (Mus musculus, UniProt P31650); experiment: Inhibition of mouse mGAT4 expressed in HEK293 cells assessed as inhibition of [3H]GABA uptake after 3 mins incubation by TopCount microplate scintillation counting analysis; details: read-out: IC50
# T3 sequence (P31650 whole entry): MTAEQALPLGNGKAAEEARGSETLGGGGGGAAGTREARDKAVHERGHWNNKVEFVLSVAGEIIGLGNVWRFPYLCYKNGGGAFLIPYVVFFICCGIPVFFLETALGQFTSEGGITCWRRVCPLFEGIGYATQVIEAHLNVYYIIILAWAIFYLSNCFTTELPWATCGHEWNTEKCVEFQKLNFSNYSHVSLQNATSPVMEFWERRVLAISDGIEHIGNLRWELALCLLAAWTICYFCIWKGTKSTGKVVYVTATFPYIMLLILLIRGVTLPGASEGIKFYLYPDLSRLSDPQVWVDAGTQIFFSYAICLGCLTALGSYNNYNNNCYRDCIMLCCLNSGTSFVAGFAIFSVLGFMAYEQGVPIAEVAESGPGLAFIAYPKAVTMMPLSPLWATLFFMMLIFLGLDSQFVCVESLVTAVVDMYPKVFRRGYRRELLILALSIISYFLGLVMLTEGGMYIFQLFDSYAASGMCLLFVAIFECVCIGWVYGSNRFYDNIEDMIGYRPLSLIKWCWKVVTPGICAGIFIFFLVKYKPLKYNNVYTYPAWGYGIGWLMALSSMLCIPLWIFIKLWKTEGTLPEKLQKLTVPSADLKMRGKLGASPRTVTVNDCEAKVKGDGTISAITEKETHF
Compound,IC50 (GABA transporter 2),IC50 (GABA transporter 3),IC50 ([1]; read-out: IC50),IC50 (GABA transporter 4),IC50 ([1]; read-out: pIC50 (converted))
COc1ccccc1C1(O)CCN(CCCn2c3ccccc3c3ccccc32)CC1,1.4 µM,0.041 mM,,,
Cc1ccsc1C(=CCCN(C)CCC(=O)O)c1sccc1C,937 µM,0.343 mM,966 µM,1.28 mM,
CN(CCON=C(c1ccccc1)c1ccccc1)CCC(=O)O,7520 µM,0.674 mM,9.7 µM,0.768 mM,
CN(CCC=C1c2ccccc2CCc2ccccc21)CCC(=O)O,735 µM,1.05 mM,77.7 µM,1.7 mM,
CN(CCCP(=O)(O)O)CCON=C(c1ccccc1)c1ccccc1,> 1000 µM,> 1 mM,> 1000 µM,> 1 mM,
CN(CCC=C1c2ccccc2CCc2ccccc21)CCCP(=O)(O)O,> 1000 µM,> 1 mM,> 1000 µM,> 1 mM,
CN(CCCS(=O)(=O)O)CCON=C(c1ccccc1)c1ccccc1,> 1000 µM,> 1 mM,828 µM,> 1 mM,
Cc1ccsc1C(=CCCn1cc(CNCCC(=O)O)nn1)c1sccc1C,> 2000 µM,> 2 mM,> 2000 µM,> 2 mM,
O=C(O)CCNCc1cn(CCOC(c2ccc(C(F)(F)F)cc2)c2ccc(C(F)(F)F)cc2)nn1,> 1000 µM,> 1 mM,> 1000 µM,> 1 mM,
Cc1ccsc1C(=CCCN1CCNCC(C(=O)O)C1)c1sccc1C (stereo not drawn),370 µM,0.844 mM,43.8 µM,1.74 mM,
CCN1CCN(CCC=C(c2sccc2C)c2sccc2C)CC(C(=O)O)C1 (stereo not drawn),318 µM,1.7 mM,483 µM,> 1 mM,
CCC(C)N1CCN(CCC=C(c2sccc2C)c2sccc2C)CC(C(=O)O)C1 (stereo not drawn),160 µM,> 1 mM,> 1000 µM,> 1 mM,
CCCCN1CCN(CCC=C(c2sccc2C)c2sccc2C)CC(C(=O)O)C1 (stereo not drawn),80.6 µM,0.65 mM,185 µM,0.681 mM,501 µM
C=CCN1CCN(CCC=C(c2sccc2C)c2sccc2C)CC(C(=O)O)C1 (stereo not drawn),160 µM,1.1 mM,549 µM,0.563 mM,
Cc1ccsc1C(=CCCN1CCN(Cc2ccccc2)CC(C(=O)O)C1)c1sccc1C (stereo not drawn),309 µM,> 1 mM,> 1000 µM,> 1 mM,
Cc1ccsc1C(=CCCN1CCN(CCO)CC(C(=O)O)C1)c1sccc1C (stereo not drawn),> 1000 µM,> 1 mM,> 1000 µM,> 1 mM,
Cc1ccsc1C(=CCCN1CCN(C(=N)N)CC(C(=O)O)C1)c1sccc1C (stereo not drawn),> 1000 µM,> 1 mM,> 1000 µM,> 1 mM,
O=C(O)C1CNCCN(CCON=C(c2ccccc2)c2ccccc2)C1 (stereo not drawn),> 1000 µM,> 1 mM,667 µM,> 1 mM,5250 µM
CCN1CCN(CCON=C(c2ccccc2)c2ccccc2)CC(C(=O)O)C1 (stereo not drawn),> 1000 µM,> 1 mM,> 1000 µM,> 1 mM,
CCCCN1CCN(CCON=C(c2ccccc2)c2ccccc2)CC(C(=O)O)C1 (stereo not drawn),> 1000 µM,> 1 mM,> 1000 µM,> 1 mM,
Cc1ccsc1C(=CCCN1CCN(CCON=C(c2ccccc2)c2ccccc2)CC(C(=O)O)C1)c1sccc1C (stereo not drawn),> 1000 µM,> 1 mM,> 1000 µM,> 1 mM,
O=C(O)C1CN(CCO)CCN(CCON=C(c2ccccc2)c2ccccc2)C1 (stereo not drawn),> 1000 µM,> 1 mM,> 1000 µM,> 1 mM,
COc1ccc(C(OCCN2CCC[C@H](C(=O)O)C2)(c2ccc(OC)cc2)c2ccc(OC)cc2)cc1,22 µM,,,,
CN(CCON=C(c1ccccc1)c1ccccc1)[C@@H]1CCCC[C@H]1C(=O)O (racemic),1100 µM,> 2 mM,,> 2 mM,
Cc1ccsc1C(=CCCN1CCC[C@@H](C(=O)O)C1)c1sccc1C [TIAGABINE],,> 0.3 mM,,,
